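A five-concentration, 48-hour dose response in 96-well plates underlies each endpoint, interpolated linearly between surrounding concentrations. GI50 = concentration required for 50% inhibition of growth. TGI: concentration producing complete growth inhibition.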
Columns and labels:
Test in all cases: inhibition of tumour cell growth, NCI panel, 48 h
HCT-15 colon = test system: HCT-15 colon
M14 melanoma = test system: M14 melanoma
MALME-3M melanoma = test system: MALME-3M melanoma
NCI-H226 lung = test system: NCI-H226 lung
NCI-H23 lung = test system: NCI-H23 lung
OVCAR-4 ovarian = test system: OVCAR-4 ovarian
SNB-19 CNS = test system: SNB-19 CNS
SNB-75 CNS = test system: SNB-75 CNS
T-47D breast = test system: T-47D breast
HOP-62 NSCLC = test system: HOP-62 NSCLC

Work on `COc1ccc(CC2c3cc4c(cc3CCN2C)OCO4)c(C=O)c1OC` (centres undefined) yielded a TGI (HCT-15 colon) of over 100 µM, a TGI (M14 melanoma) of over 100 µM and a TGI (MALME-3M melanoma) of over 100 µM. It also gave a TGI (NCI-H226 lung) of over 100 µM, a TGI (NCI-H23 lung) of over 100 µM and a TGI (OVCAR-4 ovarian) of over 100 µM. The TGI (SNB-19 CNS) was over 100 µM, the TGI (SNB-75 CNS) was over 100 µM and the TGI (T-47D breast) was over 100 µM.
`Cc1ccsc1C(=S)Nc1ccc(Cl)c(/C=N/OC(C)(C)C)c1` was tested, and the TGI (HCT-15 colon) was over 100 µM, the TGI (HOP-62 NSCLC) was over 100 µM and the TGI (M14 melanoma) was over 100 µM. It also gave a TGI (MALME-3M melanoma) of over 100 µM, a TGI (NCI-H226 lung) of over 100 µM and a TGI (NCI-H23 lung) of over 100 µM. For the same compound, the TGI (OVCAR-4 ovarian) was over 100 µM, the TGI (SNB-19 CNS) was over 100 µM and the TGI (T-47D breast) was over 100 µM.
Compound `Cc1ccc(NC(=O)Nc2ccc(-c3cccnc3)cc2N2CCC(CO)CC2)cc1` has a GI50 (HCT-15 colon) of 2.77 µM, a TGI (HCT-15 colon) of over 100 µM and a GI50 (HOP-62 NSCLC) of 2.41 µM. It also gave a TGI (HOP-62 NSCLC) of over 100 µM, a GI50 (M14 melanoma) of 2.95 µM and a TGI (M14 melanoma) of 13.9 µM. For the same compound, the GI50 (MALME-3M melanoma) was 3.07 µM, the TGI (MALME-3M melanoma) was over 100 µM and the GI50 (NCI-H226 lung) was 6.31 µM. The TGI (NCI-H226 lung) was over 100 µM, the GI50 (OVCAR-4 ovarian) was 3.53 µM and the TGI (OVCAR-4 ovarian) was over 100 µM. It also gave a GI50 (SNB-19 CNS) of 2.64 µM, a TGI (SNB-19 CNS) of over 100 µM and a GI50 (SNB-75 CNS) of 1.26 µM. For the same compound, the TGI (SNB-75 CNS) was 5.03 µM, the GI50 (T-47D breast) was 3.9 µM and the TGI (T-47D breast) was over 100 µM.
With `CCOC1Oc2ccccc2C(=O)/C1=C/Nc1ccc(C(C)=O)cc1` (centres undefined) the GI50 (HCT-15 colon) was 17.4 µM, the TGI (HCT-15 colon) was 46.3 µM and the GI50 (HOP-62 NSCLC) was 18.5 µM. For the same compound, the TGI (HOP-62 NSCLC) was 40 µM, the GI50 (M14 melanoma) was 17.4 µM and the TGI (M14 melanoma) was 35.9 µM. The GI50 (NCI-H226 lung) was 26.7 µM, the TGI (NCI-H226 lung) was 68.1 µM and the GI50 (NCI-H23 lung) was 13.9 µM. It also gave a TGI (NCI-H23 lung) of 36.2 µM, a GI50 (OVCAR-4 ovarian) of 49 µM and a TGI (OVCAR-4 ovarian) of over 100 µM. It also gave a GI50 (SNB-19 CNS) of 42.2 µM, a TGI (SNB-19 CNS) of over 100 µM and a GI50 (SNB-75 CNS) of 40.6 µM. The TGI (SNB-75 CNS) was over 100 µM, the GI50 (T-47D breast) was 62.7 µM and the TGI (T-47D breast) was over 100 µM.
`CCN(CC)CCSc1c2ccccc2nc2cc(NCC(=O)Nc3ccccc3-c3ccccc3NC(=O)CNc3ccc4c(SCCN(CC)CC)c5ccccc5nc4c3)ccc12` showed a TGI (HCT-15 colon) of over 100 µM, a TGI (HOP-62 NSCLC) of over 100 µM and a TGI (M14 melanoma) of over 100 µM. It also gave a TGI (MALME-3M melanoma) of over 100 µM, a TGI (NCI-H226 lung) of over 100 µM and a TGI (NCI-H23 lung) of over 100 µM. For the same compound, the TGI (OVCAR-4 ovarian) was over 100 µM, the TGI (SNB-19 CNS) was over 100 µM and the TGI (SNB-75 CNS) was over 100 µM.
Work on `O=C(Nc1nc2ccc([N+](=O)[O-])cc2s1)C(=O)C(C1OC(=O)c2ccccc21)[N+](=O)[O-]` (centres undefined) yielded a TGI (HCT-15 colon) of over 100 µM, a TGI (HOP-62 NSCLC) of over 100 µM and a TGI (M14 melanoma) of over 100 µM. For the same compound, the TGI (MALME-3M melanoma) was over 100 µM, the TGI (NCI-H226 lung) was over 100 µM and the TGI (NCI-H23 lung) was over 100 µM. For the same compound, the TGI (OVCAR-4 ovarian) was over 100 µM, the TGI (SNB-19 CNS) was over 100 µM and the TGI (SNB-75 CNS) was over 100 µM.
Work on `O=C(O)CCC(NC(=O)c1ccc(Nc2nc3ccccc3nc2-c2cccs2)cc1)C(=O)O` (centres undefined) yielded a TGI (HCT-15 colon) of over 100 µM, a TGI (HOP-62 NSCLC) of over 100 µM and a TGI (M14 melanoma) of over 100 µM. For the same compound, the TGI (MALME-3M melanoma) was over 100 µM, the TGI (NCI-H226 lung) was over 100 µM and the TGI (NCI-H23 lung) was over 100 µM. The TGI (OVCAR-4 ovarian) was over 100 µM, the TGI (SNB-19 CNS) was over 100 µM and the TGI (SNB-75 CNS) was over 100 µM.
With `Cc1cc(NS(=O)(=O)c2ccc(Nc3c4ccccc4nc4c(C(=O)N5CCN(CCOS(C)(=O)=O)CC5)cccc34)cc2)no1` the TGI (HCT-15 colon) was over 100 µM, the TGI (HOP-62 NSCLC) was over 100 µM and the TGI (M14 melanoma) was over 100 µM. It also gave a TGI (MALME-3M melanoma) of over 100 µM, a TGI (NCI-H226 lung) of over 100 µM and a TGI (NCI-H23 lung) of over 100 µM. It also gave a TGI (OVCAR-4 ovarian) of over 100 µM, a TGI (SNB-19 CNS) of over 100 µM and a TGI (SNB-75 CNS) of over 100 µM.
In the case of `COC(=O)/C(C#N)=C1\NC(=O)c2ccccc21`, the TGI (HCT-15 colon) was over 100 µM, the TGI (HOP-62 NSCLC) was over 100 µM and the TGI (M14 melanoma) was over 100 µM. For the same compound, the TGI (MALME-3M melanoma) was over 100 µM, the TGI (NCI-H226 lung) was over 100 µM and the TGI (NCI-H23 lung) was over 100 µM. The TGI (OVCAR-4 ovarian) was over 100 µM, the TGI (SNB-19 CNS) was over 100 µM and the TGI (SNB-75 CNS) was 76.9 µM.

— PubChem BioAssay (NCI)
